Data reported in patent publication US10028942B2 (priority 2013, dated 2018).

molecular target: T1, DLK (Homo sapiens, UniProt Q12852); details: read-out: DLK (Ki) μM; TR-FRET; 5 nM GST-tagged DLK (catalytic domain aa 1-520), 40 nM HIS-MKK4 K131M substrate, 30 μM ATP, 60 minutes
T1 sequence (Q12852 1-520): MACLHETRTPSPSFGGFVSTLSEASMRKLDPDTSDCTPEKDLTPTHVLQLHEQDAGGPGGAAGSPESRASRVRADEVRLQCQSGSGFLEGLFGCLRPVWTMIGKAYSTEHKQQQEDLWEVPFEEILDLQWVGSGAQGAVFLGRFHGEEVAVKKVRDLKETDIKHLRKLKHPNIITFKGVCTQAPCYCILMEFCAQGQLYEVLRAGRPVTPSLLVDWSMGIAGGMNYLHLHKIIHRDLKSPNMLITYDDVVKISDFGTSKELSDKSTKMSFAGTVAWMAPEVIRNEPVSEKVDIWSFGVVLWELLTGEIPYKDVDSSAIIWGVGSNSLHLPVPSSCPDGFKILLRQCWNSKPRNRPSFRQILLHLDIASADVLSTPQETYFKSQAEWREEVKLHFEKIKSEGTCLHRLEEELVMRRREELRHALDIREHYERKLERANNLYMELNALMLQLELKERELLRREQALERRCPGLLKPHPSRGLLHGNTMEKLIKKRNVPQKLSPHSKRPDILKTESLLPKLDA

| SMILES | Ki [µM] |
| --- | --- |
| FC1(F)CCC(n2nc(-c3cnc4[nH]cc(C(F)(F)F)c4c3)cc2C2CN(C3COC3)C2)C1 (stereo not drawn) [Compound 56, 5-(1-(3,3-difluorocyclopentyl)-5-(1-(oxetan-3-yl)azetidin-3-yl)-1H-pyrazol-3-yl)-3-(trifluoromethyl)-1H-pyrrolo[2,3-b]pyridine] | 0.013 |
| CC(C)n1nc(-c2cnc3[nH]cc(F)c3c2)cc1C1CN(C2COC2)C1 [Compound 58, 3-fluoro-5-(1-isopropyl-5-(1-(oxetan-3-yl)azetidin-3-yl)-1H-pyrazol-3-yl)-1H-pyrrolo[2,3-b]pyridine] | 0.64 |
| CC(C)n1nc(-c2cnc3[nH]cc(C#N)c3c2)cc1C1CN(C2COC2)C1 [Compound 59, 5-(1-isopropyl-5-(1-(oxetan-3-yl)aze-tidin-3-yl)-1H-pyrazol-3-yl)-1H-pyrro-lo[2,3-b]pyridine-3-carbonitrile] | 0.31 |
| CC(C)n1nc(-c2cnc(N)c(C(F)(F)F)c2)cc1C1CN(C2COC2)C1 [Compound 60, 5-(1-isopropyl-5-(1-(oxetan-3-yl)azetidin-3-yl)-1H-pyrazol-3-yl)-3-(trifluoromethyl)pyridin-2-amine] | 0.027 |
| Cc1c[nH]c2ncc(-c3cc(C4CCN(C5COC5)C4)n(C)n3)cc12 (stereo not drawn) [Compound 63, 3-methyl-5-(1-methyl-5-(1-(oxetan-3-yl)pyrrolidin-3-yl)-1H-pyrazol-3-yl)-1H-pyrrolo[2,3-b]pyridine] | 0.034 |
| Cc1c[nH]c2ncc(-c3cc(C4CCN(C5COC5)C4)n(C(C)C)n3)cc12 (stereo not drawn) [Compound 64, 5-(1-isopropyl-5-(1-(oxetan-3-yl)pyr-rolidin-3-yl)-1H-pyrazol-3-yl)-3-meth-yl-1H-pyrrolo[2,3-b]pyridine] | 0.0045 |
| CC(C)n1nc(-c2cnc3[nH]cc(F)c3c2)cc1C1CCN(C2COC2)C1 (stereo not drawn) [Compound 66, 3-fluoro-5-(1-isopropyl-5-(1-(oxetan-3-yl)pyrrolidin-3-yl)-1H-pyrazol-3-yl)-1H-pyrrolo[2,3-b]pyridine] | 0.11 |
| CC(C)n1nc(-c2cnc(N)c(C(F)(F)F)c2)cc1C1CCN(C2COC2)C1 (stereo not drawn) [Compound 67, 5-(1-isopropyl-5-(1-(oxetan-3-yl)pyr-rolidin-3-yl)-1H-pyrazol-3-yl)-3-(tri-fluoromethyl)pyridin-2-amine] | 0.03 |
| Cc1c[nH]c2ncc(-c3cc(C4CCN(C5COC5)CC4)n(C(C)C)n3)cc12 [Compound 69, 5-(1-isopropyl-5-(1-(oxetan-3-yl)pipe-ridin-4-yl)-1H-pyrazol-3-yl)-3-meth-yl-1H-pyrrolo[2,3-b]pyridine] | 0.0037 |
| CC(C)n1nc(-c2cnc3[nH]cc(C(F)(F)F)c3c2)cc1C1CCN(C2COC2)CC1 [Compound 70, 5-(1-isopropyl-5-(1-(oxetan-3-yl)pipe-ridin-4-yl)-1H-pyrazol-3-yl)-3-(tri-fluoromethyl)-1H-pyrrolo[2,3-b]pyri-dine] | 0.0023 |
| Nc1ncc(-c2cc(C3CCN(C4COC4)CC3)n(C3CCCC3)n2)cc1Cl [Compound 71, 3-chloro-5-(1-cyclopentyl-5-(1-(oxetan-3-yl)piperidin-4-yl)-1H-pyrazol-3-yl)pyridin-2-amine] | 0.27 |
| CC(C)n1nc(-c2cnc3[nH]cc(Cl)c3c2)cc1C1CCN(C2COC2)CC1 [Compound 72, 3-chloro-5-(1-isopropyl-5-(1-(oxetan-3-yl)piperidin-4-yl)-1H-pyrazol-3-yl)-1H-pyrrolo[2,3-b]pyridine] | 0.015 |
| CC(C)n1nc(-c2cnc3[nH]cc(F)c3c2)cc1C1CCN(C2COC2)CC1 [Compound 75, 3-fluoro-5-(1-isopropyl-5-(1-(oxetan-3-yl)piperidin-4-yl)-1H-pyrazol-3-yl)-1H-pyrrolo[2,3-b]pyridine] | 0.096 |
| CC(C)n1nc(-c2cnc(N)c(C(F)(F)F)c2)cc1C1CCN(C2COC2)CC1 [Compound 76, 5-(1-isopropyl-5-(1-(oxetan-3-yl)piperidin-4-yl)-1H-pyrazol-3-yl)-3-(trifluoromethyl)pyridin-2-amine] | 0.15 |
| CC(C)n1nc(-c2cnc3[nH]cc(C#N)c3c2)cc1C1CCN(C2COC2)CC1 [Compound 77, 5-(1-isopropyl-5-(1-(oxetan-3-yl)pipe-ridin-4-yl)-1H-pyrazol-3-yl)-1H-pyrro-lo[2,3-b]pyridine-3-carbonitrile] | 0.12 |
| Nc1ncc(-c2cc(C3CCN(C4COC4)CC3)n(C3CCCC3)n2)cc1C(F)(F)F [Compound 81, 5-(1-cyclopentyl-5-(1-(oxetan-3-yl)piperidin-4-yl)-1H-pyrazol-3-yl)-3-(trifluoromethyl)pyridin-2-amine] | 0.084 |
| CCOc1cc(-c2cc(C3CCN(C4COC4)CC3)n(C(C)C)n2)cnc1N [Compound 83, 3-ethoxy-5-(1-isopropyl-5-(1-(oxetan-3-yl)piperidin-4-yl)-1H-pyrazol-3-yl)pyridin-2-amine] | 0.39 |
| CC(C)Oc1cc(-c2cc(C3CCN(C4COC4)CC3)n(C(C)C)n2)cnc1N [Compound 84, 3-isopropoxy-5-(1-isopropyl-5-(1-(oxe-tan-3-yl)piperidin-4-yl)-1H-pyrazol-3-yl)pyridin-2-amine] | 0.26 |
| CCOc1cc(-c2cc(C3CCN(C4COC4)CC3)n(C3CCC(F)(F)C3)n2)cnc1N (stereo not drawn) [Compound 85, 5-(1-(3,3-difluorocyclopentyl)-5-(1-(oxetan-3-yl)piperidin-4-yl)-1H-pyra-zol-3-yl)-3-ethoxypyridin-2-amine] | 0.99 |
| CC(C)Oc1cc(-c2cc(C3CCN(C4COC4)CC3)n(C3CCC(F)(F)C3)n2)cnc1N (stereo not drawn) [Compound 86, 5-(1-(3,3-difluorocyclopentyl)-5-(1-(oxetan-3-yl)piperidin-4-yl)-1H-pyra-zol-3-yl)-3-isopropoxypyridin-2-amine] | 0.91 |
| Nc1ncc(-c2cc(C3CCN(C4COC4)CC3)n(C3CCC(F)(F)C3)n2)cc1OCC1CC1 (stereo not drawn) [Compound 87, 3-(cyclopropylmethoxy)-5-(1-(3,3-di-fluorocyclopentyl)-5-(1-(oxetan-3-yl)piperidin-4-yl)-1H-pyrazol-3-yl)pyri-din-2-amine] | 0.64 |

The next lines start with the values.

| Ki [µM] | SMILES |
| --- | --- |
| 0.26 | COc1cc(-c2cc(C3CCN(C4COC4)CC3)n(C3CCCC3)n2)cnc1N [Compound 88, 5-(1-cyclopentyl-5-(1-(oxetan-3-yl)piperidin-4-yl)-1H-pyrazol-3-yl)-3-methoxypyridin-2-amine] |
| 0.14 | COc1cc(-c2cc(C3CCN(C4COC4)CC3)n(C(C)C)n2)cnc1N [Compound 89, 5-(1-isopropyl-5-(1-(oxetan-3-yl)pipe-ridin-4-yl)-1H-pyrazol-3-yl)-3-meth-oxypyridin-2-amine] |
| 0.12 | CC(C)Oc1cc(-c2cc(C3CCN(C4COC4)CC3)n(C3CCCC3)n2)cnc1N [Compound 90, 5-(1-cyclopentyl-5-(1-(oxetan-3-yl)piperidin-4-yl)-1H-pyrazol-3-yl)-3-iso-propoxypyridin-2-amine] |
| 0.94 | CC(C)n1nc(-c2cnc(N)c(C#N)c2)cc1C1CCN(C2COC2)CC1 [Compound 92, 2-amino-5-(1-isopropyl-5-(1-(oxetan-3-yl)piperidin-4-yl)-1H-pyrazol-3-yl)nicotinonitrile] |
| 0.17 | N#Cc1cc(-c2cc(C3CCN(C4COC4)CC3)n(C3CCCC3)n2)cnc1N [Compound 93, 2-amino-5-(1-cyclopentyl-5-(1-(oxetan-an-3-yl)piperidin-4-yl)-1H-pyrazol-3-yl)nicotinonitrile] |
| 1.2 | CC(C)n1nc(-c2cnc3c(c2)C(C)(C)CN3)cc1C1CCN(C2COC2)CC1 [Compound 95, 5-(1-isopropyl-5-(1-(oxetan-3-yl)piperidin-4-yl)-1H-pyrazol-3-yl)-3,3-dimethyl-2,3-dihydro-1H-pyrrolo[2,3-b]pyridine] |
| 0.36 | CC(C)n1nc(-c2cnc(N)c(C3CC3)c2)cc1C1CCN(C2COC2)CC1 [Compound 98, 3-cyclopropyl-5-(1-isopropyl-5-(1-(oxe-tan-3-yl)piperidin-4-yl)-1H-pyra-zol-3-yl)pyridin-2-amine] |
| 0.069 | CC(C)n1nc(-c2cnc(N)c(OC(F)F)c2)cc1C1CCN(C2COC2)CC1 [Compound 99, 3-(difluoromethoxy)-5-(1-isopropyl-5-(1-(oxetan-3-yl)piperidin-4-yl)-1H-pyrazol-3-yl)pyridin-2-amine] |
| 0.001 | CC(C)n1nc(-c2cnc3[nH]cc(C(F)(F)F)c3c2)cc1C1CCN(C2CCC2)CC1 [Compound 101, 5-(5-(1-cyclobutylpiperidin-4-yl)-1-iso-propyl-1H-pyrazol-3-yl)-3-(trifluoro-methyl)-1H-pyrrolo[2,3-b]pyridine] |
| 0.034 | CC(C)n1nc(-c2cnc(N)c(C(F)(F)F)c2)cc1C1CCN(C2CCC2)CC1 [Compound 102, 5-(5-(1-cyclobutylpiperidin-4-yl)-1-isopropyl-1H-pyrazol-3-yl)-3-(trifluoromethyl)pyridin-2-amine] |
| 0.096 | Nc1ncc(-c2cc([C@H]3[C@@H]4COC[C@@H]43)n(C3CCCC3)n2)cc1Cl [Compound 105, 5-(5-((1R,5S,6s)-3-oxabicyclo[3.1.0]hexan-6-yl)-1-cyclopentyl-1H-pyra-zol-3-yl)-3-chloropyridin-2-amine] |
| 0.0024 | Nc1ncc(-c2cc([C@H]3[C@@H]4CNC[C@@H]43)n(CC(F)(F)F)n2)cc1C(F)(F)F [Compound 107, 5-(5-((1R,5S,6r)-3-azabicyclo[3.1.0]hexan-6-yl)-1-(2,2,2-trifluoroethyl)-1H-pyrazol-3-yl)-3-(trifluoromethyl) pyridin-2-amine] |
